# Experimental data reported in patent US9810700B1, “Fluorogenic calcium ion indicators and methods of using the same” (AAT Bioquest, Inc., priority 2017, dated 2017).
# Assays:
# [1] = Water solubility comparison of PEGTA compounds and conventional BAPTA calcium indicator AM esters; assay type: physicochemical; conditions: PBS, AM ester; for solubility: aqueous buffer, 25° C., read-out: Water solubility at 25° C. (PEGTA Compound)
# [2] = tested on: CHO cells stably transfected with muscarinic receptor 1; assay: Calcium flux assay, indicator AM esters loaded into cells, with or without probenecid; assay type: cell-based; conditions: probenecid is not used
# Method: In some embodiments, the fluorescent ion indicators are used in a method to measure calcium flux. Cells (e.g., CHO cells) stably transfected with muscarinic receptor 1 are plated—e.g., at 60,000 cells per 100 μl per well in F12 with 5% FBS and 1% glutamine in a 96-well black wall/clear bottom Costar plate—and incubated (e.g., in 5% CO2 at 37° C. overnight). The growth medium is removed and the cells are incubated with a fluorescent ion indicator (e.g., with 100 μl/well of 1-8 μM Fluo-3 AM, Fluo-4 AM or one or more compounds selected from Compound 22, 23, 24, 28, 33, 34, 40, 41 or 188 in Hanks and HEPES buffer for 1 hour at 37° C., 5% CO2) with or without probenecid. Carbachol or ATP is added (e.g., 50 μl/well by NOVOstar, FlexStation or FLIPR) to achieve a final concentration.
# Cells expressing a GPCR of interest that signals through calcium are pre-loaded with the indicator AM esters (such as Fluo-3 AM. Fluo-4 AM, Compounds 22, 23, 24, 28, 33, 34, 40, 41 or 188) which can cross cell membrane. […] When the sample cells are stimulated with screening compounds, the receptor triggers a release of intracellular calcium, which then greatly increases the fluorescence of the intracellular indicators. […]
# CHO-K1 cells = assay: ATP-stimulated calcium response monitored with FlexStation; assay type: cell-based; conditions: in the absence of probenecid; compared with Fluo-4 AM
# Method: CHO-K1 cells are seeded overnight at 50,000 cells per 100 μl per well in a 96-well black wall/clear bottom costar plate. The growth medium is removed, and the cells are incubated with 100 μl of Compound 24 and Fluo-4 AM at 5 μM in Hanks and Hepes buffer in the presence of 2.5 mM probenecid for 1 hour at 37° C., 5% CO2 incubator. ATP (10 μM) is added by FlexStation to stimulate cell calcium, and the time-dependent calcium response is monitored with FlexStation.
# CHO-K1 cells are seeded overnight at 50,000 cells per 100 μl per well in a 96-well black wall/clear bottom costar plate. The growth medium is removed, and the cells are incubated with 100 μl of Compound 24 and Fluo-4 AM at 5 μM in Hanks and Hepes buffer for 2 hours at 25° C. ATP (50 μL/well) is added by FlexStation to achieve the final desired concentrations.
# CHO-K cells are seeded overnight at 50,000 cells per 100 μl per well in a 96-well black wall/clear bottom costar plate. The growth medium is removed, and the cells are incubated with 100 μl of Compound 24 and Fluo-4 AM at 5 μM in Hanks and Hepes buffer in the presence of 2.5 mM probenecid for 1 hour at 37° C., 5% CO2 incubator. ATP (10 μM) is added by FlexStation to stimulate cell calcium, and the time-dependent calcium response is monitored with FlexStation. […]
SMILES,Water solubility at 25° C. (BAPTA Compound) [1],capability of detecting calcium [2],solubility [1],fluorescence intensity enhancement upon calcium stimulation (CHO-K1 cells),fluorescence intensity compared with the corresponding BAPTA compounds [2]
"CC(=O)OCOC(=O)CN(CC(=O)OCOC(C)=O)c1ccc(C)cc1OCCOc1cc(-c2c3cc(F)c(=O)cc-3oc3cc(OCOC(C)=O)c(F)cc23)ccc1N(CC(=O)OCOC(C)=O)CC(=O)OCOC(C)=O [Fluo-4 AM, reference compound]",1.26 μg/ml PBS,not capable of detecting calcium in some types of cells and tissues,,,
CC(=O)OCOC(=O)CN(CCOCCOc1cc2c(cc1N(CC(=O)OCOC(C)=O)CC(=O)OCOC(C)=O)C(=O)OC21c2cc(F)c(OC(C)=O)cc2Oc2cc(OC(C)=O)c(F)cc21)CC(=O)OCOC(C)=O [Compound 22],,,1.63 µg/mL,,
CC(=O)OCOC(=O)CN(CCOCCOc1cc(-c2c3cc(F)c(=O)cc-3oc3cc(OCOC(C)=O)c(F)cc23)ccc1N(CC(=O)OCOC(C)=O)CC(=O)OCOC(C)=O)CC(=O)OCOC(C)=O [Compound 24],,,2.18 µg/mL,unexpected better fluorescence intensity enhancement,much greater than that of the corresponding BAPTA compounds
CC(=O)OCOC(=O)CN(CCOCCOc1cc(C2=C3C(C)=CC(C)=[N+]3[B-](F)(F)n3c(C)cc(C)c32)ccc1N(CC(=O)OCOC(C)=O)CC(=O)OCOC(C)=O)CC(=O)OCOC(C)=O [Compound 188],,,1.29 µg/mL,,
